Read-outs that look alike come from different tables or passages of the source.
How the values were obtained:
[1] = biological target: T1, Sphingomyelin Synthase 2 (SMS2) (Homo sapiens, UniProt Q8NHU3); assay: In vitro inhibition of sphingomyelin synthase 2, HPLC fluorogenic quantitative detecting method (C6-NBD-ceramide to C6-NBD-SM, SMS2 high-expressed insect cell homogenate); format: biochemical; settings: for IC50: read-out: SMS2 Median Inhibitory Concentration IC50
T1 construct: made in house; used as homogenate
T1 sequence (Q8NHU3 1-365): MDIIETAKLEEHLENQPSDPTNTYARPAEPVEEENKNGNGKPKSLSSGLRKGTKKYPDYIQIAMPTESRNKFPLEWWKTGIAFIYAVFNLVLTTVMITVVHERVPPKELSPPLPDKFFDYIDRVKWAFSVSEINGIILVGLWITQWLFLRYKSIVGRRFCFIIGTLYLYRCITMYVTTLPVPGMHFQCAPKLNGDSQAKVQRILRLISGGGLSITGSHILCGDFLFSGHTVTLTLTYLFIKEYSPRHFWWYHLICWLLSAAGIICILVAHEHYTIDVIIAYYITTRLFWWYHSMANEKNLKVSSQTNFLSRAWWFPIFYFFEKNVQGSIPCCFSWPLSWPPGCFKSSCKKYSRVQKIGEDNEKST
From the text: The second aim of the present invention is to show the use of 2-alkoxy benzene formyl arylamines in preparing SMS small-molecule inhibitors. This invention evaluate SMS inhibitory activity of 2-alkoxy benzene formyl arylamines as scheme I through HPLC fluorogenic quantitative detecting method reported (Xiaodong Deng; Hong Sun; et al. Analytical Letters, 2012, 45:12, 1581-1589), which can make it possible to calculate the catalytic activity difference of SMS treated with inhibitors or not through content changes of NBD-ceramide and NBD-sphingomyelin.
9. The organic solvents were purchased from Shanghai Sinopharm Reagent Company; methanol is of HPLC grade; water is ultrapure water filtrated by Milli-Q pump and deionized and ultrafiltrated by 0.22 μm ultrafiltration membrane. Other biological supplies are purchased in domestic companies. 10. Preparation of SMS homogenate extraction buffer (Buffer1): (50 mM Tris hydrochloride, pH 7.4, 5% anhydrous sucrose, 1 mM ethylenediaminetetraacetic acid) 1.2114 g tris(hydroxymethyl)aminomethane hydrochloride (Tris-HCl) was dissolved in 100 ml distilled water. Then 84 ml 0.1 mol/L hydrochloric acid was added. Constant volume to 200 ml. Finally, 10 g sucrose and 58.45 mg EDTA were dissolved in the mixture. 11. Preparation of SMS test buffer […]: (100 mM Hepes, 30 mM MnCl2, 3% fatty acid free BSA): 1.1916 g 4-(2-hydroxyethyl)-1-peperazineethanesulfonic acid (Hepes), 0.2969 g MnCl2.4H2O and 0.3 g fatty acid free bovine serum albumin were dissolved in distilled water then constant volume to 50 ml. 12. Preparation of under tested compound solution: To each accurate weighed compound for 1˜2 mg, an appropriate amount of DMSO was added to formulate a stock solution of 6 mM precisely. To a certain volume of the DMSO stock solution of the test compound, the appropriate volume of DMSO was added to dilute the solution to the desired concentration. 13. SMS2 high-expressed insect cell homogenate was prepared by Xu Yanhui group from Institutes of Biomedical Sciences, Fudan University. Part 1 Activity Assay for Inhibition of 2-Alkoxy-Benzoyl Aromatic Amines to Sphingomyelin Synthase 2
250 μL tri-distilled water, 30 μL Buffer2, 4 μL SMS2 high-expressed insect cell homogenate (total protein content is 0.5 μg/μL) and 10 μL DMSO or DMSO solution of under tested compound were added to 1.5 mL eppendorf tube, vortex mixed for 30 seconds and then incubated in a 37° C. water bath for 0.5 h. 3 μL ethanol solution of DMPC (40 mM) and 3 μL ethanol solution of C6-NBD-Ceramide (1.16 mM) were added, vortex mixed for 30 seconds, and then incubate in a 37° C. water bath for 2.0 hours. To it 600 μL anhydrous ethanol was added vortex mixed for 1 minute and centrifuged 10 minutes in 10000 rpm and 600 μL supernatant was taken out and stored at 4° C. for HPLC analysis.
Using the same HPLC fluorogenic quantitative detecting method as reference (Xiaodong Deng; Hong Sun; et al. Analytical Letters, 2012, 45:12, 1581-1589) to analysize samples obtained above. Analysize and record peak areas of C6-NBD-SM (Asm) and C6-NBD-Ceramide (Acer) of each sample from blank group, positive control group (compound D2) and under tested compound group. The data were parallelly determined for 3 times. Calculate inhibition rate from the formula below: […]
The DMSO stock solution of under tested compound (6 mM) was diluted stepwise into five concentration gradient. 10 μL solution of each concentration was added into the trial system to prepare samples with the method mentioned in the first step of application case 12. The Asm values of the five concentration solution of tested compound were measured, and the inhibition rate under the five concentration were calculated and fitted to obtain median inhibitory concentration (IC50). Each compound was measured three parallel groups. SMS2 median inhibitory concentration of Scheme I-1˜I-60 are listed below in Table 1: […]

SMS = settings: reference value; read-out: IC50 (SMS inhibitory activity); cited from earlier work
[2] = at 10 μM, read-out: inhibition rate
[3] = five concentrations, three parallel groups, experimental value

Row | Molecule | inhibition at 10 µM [1, 2] [%] | IC50 [1, 3] [µM] | also measured
1 | COc1ccc(C(=O)Nc2cccnc2)c(OCc2ccccc2Cl)c1 [Scheme I-60, 2-(2-chloro-benzyloxy)-4-methoxy-N-(pyridin-3-yl) benzamide] | 13.3 | > 50 | melting point: 129.2 to 131.9 °C
2 | O=C(Nc1cncnc1)c1ccccc1OCc1ccccc1 [Scheme I-53, 2-benzyloxy-N-(pyrimidin-5-yl) benzamide] | 38.4 | > 25 | melting point: 112.3 to 114.9 °C
3 | 2-((4-cyano) benzyloxy)-N-(pyridin-3-yl) benzamide [Scheme I-15] |  | > 100 | inhibition rate ([1]; at 50 μM): 15.0%
4 | 2-(4-bromo-benzyloxy)-N-(pyridin-3-yl) benzamide [Scheme I-9] |  | > 100 | inhibition rate ([1]; at 50 μM): 14.7%
5 | O=C(O)c1ccc(COc2ccccc2C(=O)Nc2cccnc2)cc1 [Scheme I-46, 4-((2-(pyridin-3-ylcarbamoyl)phenoxy)methyl) benzoic acid] | 2.6 | > 100 | 
6 | 2-((5-chloro-hexyloxy) benzyloxy)-N-(pyridin-3-yl) benzamide [Scheme I-39] |  | 0.5 | inhibition rate ([1]; at 5 μM): 85.5%
7 | O=C(O)COc1cccc(COc2ccccc2C(=O)Nc2cccnc2)c1 [Scheme I-48, 2-(3-((2-(pyridin-3-ylcarbamoyl)phenoxy)methyl)phenoxy) acetic acid] | 3 | > 100 | 
8 | O=C(Nc1cccnc1)c1ccccc1OCc1cccc(Cl)c1F [Scheme I-18, 2-((2-fluoro-3-chloro)benzyloxy)-N-(pyridin-3-yl) benzamide] |  |  | IC50 [1]: 3.1 µM; inhibition at 5 µM ([1]; read-out: inhibition rate): 55.2%
9 | 2-(3-bromo-benzyloxy)-N-(pyridin-3-yl) benzamide [Scheme I-8] |  | > 50 | inhibition rate ([1]; at 50 μM): 67.1%
10 | O=C(Nc1cccnc1)c1cc([N+](=O)[O-])ccc1OCc1ccccc1Cl [Scheme I-57, 2-(2-chloro-benzyloxy)-5-nitro-N-(pyridin-3-yl) benzamide] | 1.7 | > 100 | 
11 | COc1ccc(COc2ccccc2C(=O)Nc2cccnc2)cc1 [Scheme I-5, 2-((4-methoxy)benzyloxy)-N-(pyridin-3-yl) benzamide] |  | > 100 | inhibition at 50 µM ([1]; at 50 μM, read-out: inhibition rate): 23%
12 | COCCCOc1ccc(Cl)cc1COc1ccccc1C(=O)Nc1cccnc1 [Scheme I-49, 2-((5-chloro-2-(3-methoxy-propoxy))benzyloxy)-N-(pyridin-3-yl) benzamide] | 75.3 | 4.1 | 
13 | O=C(Nc1cccnc1)c1ccccc1OCc1cccc2ccccc12 [Scheme I-45, 2-((naphthalen-1-yl)methoxy)-N-(pyridin-3-yl) benzamide] | 78 | 2.6 | melting point: 91.4 to 93.9 °C
14 | 2-((2,6-dimethyl) benzyloxy)-N-(pyridin-3-yl) benzamide [Scheme I-29] |  | 0.9 | inhibition rate ([1]; at 10 μM): 88.8%
15 | 2-((4-nitro) benzyloxy)-N-(pyridin-3-yl) benzamide [Scheme I-13] |  | > 100 | inhibition rate ([1]; at 50 μM): 11.8%
16 | O=C(O)COc1ccccc1COc1ccccc1C(=O)Nc1cccnc1 [Scheme I-47, 2-(2-((2-(pyridin-3-ylcarbamoyl)phenoxy)methyl)phenoxy) acetic acid] | 7.4 | > 100 | 
17 | 2-((4-trifluoromethyl) benzyloxy)-N-(pyridin-3-yl) benzamide [Scheme I-20] |  | > 100 | inhibition rate ([1]; at 10 μM): 3.9%
18 | 2-(2-cyano-benzyloxy)-N-(pyridin-3-yl) benzamide [Scheme I-6] |  | 31.8 | inhibition rate ([1]; at 50 μM): 50.0%
19 | COCCOc1ccc(Cl)cc1COc1ccccc1C(=O)Nc1cccnc1 [Scheme I-50, 2-((5-chloro-2-(2-methoxyethoxy))benzyloxy)-N-(pyridin-3-yl) benzamide] | 54.2 | 11.6 | 
20 | CCOC(=O)c1ccc(COc2ccccc2C(=O)Nc2cccnc2)cc1 [Scheme I-19, 4-((2-(pyridin-3-ylcarbamoyl)phenoxy)methyl) benzene carboxylic acid ethyl ester] | 2.9 | > 100 | 
21 | O=C(Nc1cccnc1)c1ccccc1OCc1c(Cl)cccc1Cl [Scheme I-17, 2-((2,6-dichlorophenyl)benzyloxy)-N-(pyridin-3-yl) benzamide] |  | 0.7 | inhibition at 5 µM ([1]; at 5 μM, read-out: inhibition rate): 77.2%
22 | 2-((3-methoxy) benzyloxy)-N-(pyridin-3-yl) benzamide [Scheme I-23] |  | 5.7 | inhibition rate ([1]; at 10 μM): 59.8%
23 | 2-((2-ethoxy) benzyloxy)-N-(pyridin-3-yl) benzamide [Scheme I-30] |  | 1.2 | inhibition rate ([1]; at 10 μM): 86.3%
24 | O=C(Nc1cccnc1)c1ccccc1OCc1ccccc1OCCCCCCCl [Scheme I-36, 2-(2-(6-Chloro-hexyloxy)benzyloxy)-N-(pyridin-3-yl) benzamide] | 91.5 | 0.5 | 
25 | S=C(S)OC1CC2CC1C1CCCC21 (stereo not drawn) [Scheme D609] |  |  | IC50 (SMS): 375 µM
26 | O=C(Nc1cccnc1)c1ccccc1OCc1cccc(C(F)(F)F)c1 [Scheme I-41, 2-((3-trifluoromethyl)benzyloxy)-N-(pyridin-3-yl) benzamide] | 10 | > 100 | 

Reference: patent publication US10196359B2, “2-alkyloxy benzene formyl arylamine compound and pharmaceutical use thereof” (FUDAN UNIVERSITY, priority 2014, dated 2019)
